{
  "source": "patent US9682071B2",
  "about": "“Methods of improving microvascular integrity” (INTERMUNE, INC., priority 2013, dated 2017)",
  "system": "trachea allograft mouse model of acute transplant rejection",
  "assay": "murine orthotopic tracheal transplant model (allograft rejection)",
  "format": "in vivo",
  "details": "for tissue oxygenation (pO2): pirfenidone-treated allografted mice vs untreated allografted controls, over time post-transplantation (FIG. 3), pO2 in mm Hg",
  "description": "Pirfenidone was tested in a murine orthotopic tracheal transplant model, as generally described in Babu et al., J Clin Invest. 2007; 117(12):3774-3785. In this model in which allograft rejection occurs, typically perfusion ceases after a fixed period of time which is highly reliable (10 days). […] Perfusion is later restored on rejecting allografts as recipient-derived vessels neovascularize the transplant on d28. In contrast, mice receiving syngeneic (identical) grafts maintain tissue oxygenation at approximately the same levels throughout. Magnified images of the microvasculature, obtained after i.v. injection of FITC-conjugated (green) tomato lectin to bind and identify perfused vasculature, are shown in FIG. 1B.",
  "data": [
    {"smiles": "Cc1ccc(=O)n(-c2ccccc2)c1", "note": "[Pirfenidone, 5-methyl-1-phenyl-2-(1H)-pyridone]", "values": [
      {"measurement": "fibrosis", "setting": "allograft recipients fed pirfenidone in their chow", "value": "significantly attenuated"},
      {"measurement": "perfused vasculature (FITC-conjugated tomato lectin images)", "setting": "allograft recipients fed pirfenidone in their chow, vs control allografted mice receiving no treatment", "value": "the vasculature is protected"},
      {"measurement": "appearance of vasculature at days 10 and 12", "setting": "pirfenidone in chow, days 10 and 12 post-transplantation, FITC-lectin images (FIG. 2)", "value": "robust"},
      {"measurement": "time vasculature is preserved", "setting": "pirfenidone-treated allografted mice (FIG. 3)", "value": "at least 12 days post-transplantation"},
      {"measurement": "tissue oxygenation (pO2)", "value": "maintained tissue oxygenation at approximately the same levels throughout the time period shown"},
      {"measurement": "tissue oxygenation (pO2)", "setting": "listed as pirfenidone", "value": "maintaining tissue oxygenation levels at the same levels through at least day 12"}
    ]}
  ]
}
